Values quoted from earlier work, collected in patent US20070031339A1, “Contrast agents” (priority 2003, published 2007).

Details: aqueous solution at 350 mg iodine/ml, 37° C.

Which Viscosity does the source give for `C[C@H](O)C(=O)Nc1c(I)c(C(=O)NC(CO)CO)c(I)c(C(=O)NC(CO)CO)c1I` [lopamidol] here?
The Viscosity was 7.6 mPas.
